Source: article PMC11820700, “Antioxidant, Enzyme-Inhibitory and Antimicrobial Activity of Underutilized Wheat and Maize Crop Residues” (Plants, 2025)
Converted amounts (≈) assume the structure as drawn. “And” between values parts separate entries of the source, which are not always exact repeats. Identical values can stand only once. Like-named read-outs stand apart in the source and are kept apart here. Marks after values point to notes of the source that are not given here.

Key:
α-glucosidase = conditions: cited from earlier work
α-amylase = conditions: cited from earlier work; for α-amylase IC50: mg/mL figure given in parentheses beside mM; for α-amylase IC50 / IC50: ref Jeong et al. (2012) [29]
[1] = TRC (total reducing capacity) ferric reducing power assay; conditions: L-ascorbic acid equivalents
[2] = cited from earlier work; for DPPH radical inhibition: concentrations 50–1000 µg/mL, ref Jeong et al. (2010) [24]
[3] = set-up: method as in Glišić et al. (2024) [4]; conditions: ref Glišić et al. (2024) [4]; cited from earlier work
[4] = set-up: method as in Glišić et al. (2024) [4]; conditions: ref Glišić et al. (2024) [4]; cited from earlier work; remark: listed apart in the source
[5] = set-up: method as in Glišić et al. (2024) [4]; conditions: ref Glišić et al. (2024) [4]; cited from earlier work; remark: listed apart in the source
[6] = cited from earlier work
[7] = system: Escherichia coli ATCC 8739; assay: Broth microdilution MIC; format: cell-based; conditions: for MIC: ATCC8739, 24 h, read-out: Minimal Inhibitory Concentrations MICs
[8] = target: T1, α-amylase from porcine pancreas (Sus scrofa, UniProt P00690); assay: biochemical; conditions: for IC50: read-out: α-amilase IC50 (converted)
T1 construct: purchased Merck KGaA (Darmstadt, Germany) type VI-B (catalogue number not given); host or cells: porcine pancreas
T1 sequence (P00690 16-511): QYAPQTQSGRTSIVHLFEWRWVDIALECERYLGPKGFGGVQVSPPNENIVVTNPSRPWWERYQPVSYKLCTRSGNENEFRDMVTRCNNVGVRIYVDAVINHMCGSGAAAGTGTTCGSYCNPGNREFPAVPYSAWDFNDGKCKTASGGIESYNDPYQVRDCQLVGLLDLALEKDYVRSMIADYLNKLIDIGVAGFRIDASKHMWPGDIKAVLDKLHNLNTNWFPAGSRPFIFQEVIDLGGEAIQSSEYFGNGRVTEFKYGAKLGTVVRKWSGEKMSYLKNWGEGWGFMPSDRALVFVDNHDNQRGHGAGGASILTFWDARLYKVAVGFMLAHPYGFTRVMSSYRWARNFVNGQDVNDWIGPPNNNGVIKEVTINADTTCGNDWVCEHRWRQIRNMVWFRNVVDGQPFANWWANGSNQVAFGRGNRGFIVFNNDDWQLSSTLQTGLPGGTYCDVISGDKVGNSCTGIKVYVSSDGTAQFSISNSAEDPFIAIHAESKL

[9] = ABTS free radical scavenging assay
[10] = target: acetylcholinesterase (AChE) from Electrophorus electricus (Electrophorus electricus, UniProt O42275); assay: biochemical
Sequence of acetylcholinesterase (AChE) from Electrophorus electricus (O42275 24-633 limits assumed): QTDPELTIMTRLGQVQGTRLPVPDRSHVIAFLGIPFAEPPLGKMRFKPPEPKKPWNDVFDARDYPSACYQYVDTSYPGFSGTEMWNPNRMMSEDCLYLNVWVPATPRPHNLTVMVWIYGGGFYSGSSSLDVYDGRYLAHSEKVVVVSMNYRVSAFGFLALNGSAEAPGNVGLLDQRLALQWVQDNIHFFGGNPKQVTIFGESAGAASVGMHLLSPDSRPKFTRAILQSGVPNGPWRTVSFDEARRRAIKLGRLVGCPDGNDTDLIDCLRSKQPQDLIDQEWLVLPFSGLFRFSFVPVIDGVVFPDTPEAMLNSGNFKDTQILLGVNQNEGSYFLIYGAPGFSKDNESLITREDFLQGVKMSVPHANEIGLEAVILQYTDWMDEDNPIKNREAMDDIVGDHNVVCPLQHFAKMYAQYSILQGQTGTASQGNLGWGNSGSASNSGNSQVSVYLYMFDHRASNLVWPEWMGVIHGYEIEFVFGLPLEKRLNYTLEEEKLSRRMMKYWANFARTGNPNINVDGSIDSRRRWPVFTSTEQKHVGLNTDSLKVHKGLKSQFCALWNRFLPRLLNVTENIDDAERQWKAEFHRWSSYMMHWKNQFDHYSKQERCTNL

[11] = system: Klebsiella pneumoniae NCIMB 9111; assay: Broth microdilution MIC; format: cell-based; conditions: for MIC: NCIMB9111, 24 h, read-out: Minimal Inhibitory Concentrations MICs
[12] = system: Salmonella abony NCTC 6017; assay: Broth microdilution MIC; format: cell-based; conditions: for MIC: Salmonella enterica, NCTC6017, Salmonella abony, 24 h, read-out: Minimal Inhibitory Concentrations MICs
[13] = DPPH free radical scavenging assay
[14] = system: Candida albicans ATCC 10231; assay: Broth microdilution MIC; format: cell-based; conditions: for Minimal Inhibitory Concentrations MICs: 48 h; for MIC: ATCC10231, 48 h, read-out: Minimal Inhibitory Concentrations MICs
[15] = system: Enterococcus faecalis ATCC 29212; assay: Broth microdilution MIC; format: cell-based; conditions: for Minimal Inhibitory Concentrations MICs: 24 h; for MIC: ATCC29212, 24 h, read-out: Minimal Inhibitory Concentrations MICs
[16] = target: α-glucosidase from bakers’ yeast (Saccharomyces cerevisiae, UniProt P53341); format: biochemical
Sequence of α-glucosidase from bakers’ yeast (P53341 whole entry, looked up): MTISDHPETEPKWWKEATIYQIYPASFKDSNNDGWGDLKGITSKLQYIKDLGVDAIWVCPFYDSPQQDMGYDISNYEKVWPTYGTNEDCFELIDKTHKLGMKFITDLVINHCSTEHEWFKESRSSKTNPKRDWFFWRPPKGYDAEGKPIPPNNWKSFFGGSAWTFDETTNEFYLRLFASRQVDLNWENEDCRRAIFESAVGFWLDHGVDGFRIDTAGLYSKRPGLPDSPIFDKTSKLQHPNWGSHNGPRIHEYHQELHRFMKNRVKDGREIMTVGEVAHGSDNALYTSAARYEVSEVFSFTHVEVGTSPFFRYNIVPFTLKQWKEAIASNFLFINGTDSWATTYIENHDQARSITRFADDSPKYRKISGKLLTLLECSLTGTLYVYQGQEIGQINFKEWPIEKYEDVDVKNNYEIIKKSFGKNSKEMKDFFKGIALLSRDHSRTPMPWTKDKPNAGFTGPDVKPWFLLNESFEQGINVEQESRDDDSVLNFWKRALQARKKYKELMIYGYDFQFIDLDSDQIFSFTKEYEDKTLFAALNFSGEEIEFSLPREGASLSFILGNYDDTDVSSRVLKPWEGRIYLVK

[17] = system: Bacillus subtilis ATCC 6633; assay: Broth microdilution MIC; format: cell-based; conditions: for Minimal Inhibitory Concentrations MICs: 24 h; for MIC: ATCC6633, 24 h, read-out: Minimal Inhibitory Concentrations MICs
[18] = system: clinical isolates of both Gram-positive and Gram-negative bacteria; set-up: method as in Alves et al. (2013) [45]; conditions: ref Alves et al. (2013) [45]; cited from earlier work
[19] = system: Staphylococcus aureus ATCC 6538; assay: Broth microdilution MIC; format: cell-based; conditions: extracts 62.5–1000, compounds 31.25–500 µg/mL tested; for MIC: ATCC6538, 24 h, read-out: Minimal Inhibitory Concentrations MICs
[20] = system: Pseudomonas aeruginosa ATCC 9027; assay: Broth microdilution MIC; format: cell-based; conditions: for MIC: ATCC9027, 24 h, read-out: Minimal Inhibitory Concentrations MICs
[21] = target: butyrylcholinesterase (BChE) from equine serum (Equus caballus, UniProt P81908); assay: biochemical; format: biochemical
Sequence of butyrylcholinesterase (BChE) from equine serum (P81908 whole entry, looked up): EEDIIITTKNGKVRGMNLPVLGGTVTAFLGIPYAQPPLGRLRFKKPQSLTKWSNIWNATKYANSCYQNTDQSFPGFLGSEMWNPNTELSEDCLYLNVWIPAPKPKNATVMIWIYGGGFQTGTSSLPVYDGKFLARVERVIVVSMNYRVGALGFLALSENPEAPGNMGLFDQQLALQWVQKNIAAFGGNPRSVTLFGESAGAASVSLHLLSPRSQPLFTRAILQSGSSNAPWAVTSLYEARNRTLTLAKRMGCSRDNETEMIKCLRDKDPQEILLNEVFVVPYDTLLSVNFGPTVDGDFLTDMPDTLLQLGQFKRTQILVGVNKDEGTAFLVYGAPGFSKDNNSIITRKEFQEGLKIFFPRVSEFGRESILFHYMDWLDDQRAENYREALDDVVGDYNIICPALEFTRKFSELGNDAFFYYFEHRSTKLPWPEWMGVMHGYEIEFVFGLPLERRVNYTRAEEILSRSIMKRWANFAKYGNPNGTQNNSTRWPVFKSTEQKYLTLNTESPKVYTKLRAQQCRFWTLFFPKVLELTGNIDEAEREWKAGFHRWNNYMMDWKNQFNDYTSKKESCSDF

[22] = FRAP ferric reducing power assay
[23] = system: methicillin-resistant Staphylococcus aureus (MRSA); conditions: ref Alves et al. (2013) [45]; cited from earlier work
tyrosinase = conditions: cited from earlier work
tyrosinase from mushroom = format: biochemical
[24] = target: acetylcholinesterase (AChE); conditions: cited from earlier work
Gram-negative bacteria = system: Gram-negative bacteria; set-up: method as in Lou et al. (2012) [44]; conditions: ref Lou et al. (2012) [44]; cited from earlier work
[25] = system: three tested Gram-positive bacteria; set-up: method as in Lou et al. (2012) [44]; conditions: ref Lou et al. (2012) [44]; cited from earlier work
[26] = mg/mL figure given in parentheses beside mM, ref Jeong et al. (2012) [29]
[27] = isolated from medicinal rice (Oryza sativa L.), ref Mohanlal et al. (2011) [7]

C[C@H]1O[C@H](O[C@H]2[C@H](O)[C@@H](O)[C@@H](O[C@H]3[C@H](O)[C@@H](O)C(O)O[C@@H]3CO)O[C@@H]2CO)[C@H](O)[C@@H](O)[C@@H]1N[C@H]1C=C(CO)[C@@H](O)[C@H](O)[C@H]1O (stereo partly drawn) [ACB, acarbose, reference compound]
α-glucosidase inhibition (α-glucosidase; at 0.44 mg/mL, ref [33]): 62%
α-glucosidase inhibition (α-glucosidase; at 1.5 mg/mL, ref [29]): 70.2%
α-amylase inhibition (α-amylase; at 1.5 mg/mL, ref [29]): 59.3%

Cc1cc(C(C)(C)C)c(O)c(C(C)(C)C)c1 [BHT, butylated hydroxytoluene]
TRC [1]: 615.02 ± 38.87 ^c mg L-AAE/g
DPPH radicals scavenged ([2]; at 0.2 mg/mL, ref [27]): 47.32%
DPPH radical inhibition [2]: 73.9–90.7%
DPPH IC50 ([2]; methanol extracts from unfermented straw, ref Đorđević et al. (2019) [12]): 50 µg/mL
DPPH IC50 ([2]; ref Yang et al. (2024) [20]): 150 µg/mL
DPPH IC50 [3]: 0.038 ± 0.001 ^e mg/mL
ABTS IC50 [4]: 0.040 ± 0.002 ^e mg/mL
FRAP [5]: 0.41 µmol Fe^2+/g and 0.41 ± 0.03 ^c µmol Fe^2+/g and 0.41 ± 0.03 ^d µmol Fe^2+/g
ABTS radicals scavenged ([6]; at 0.2 mg/mL, ref [27]): 50.32%
ABTS IC50 ([6]; ref Yang et al. (2024) [20]): 140 µg/mL

COc1cc(/C=C/C(=O)O)ccc1O [FA, ferulic acid]
α-glucosidase IC50 (α-glucosidase; [26]): 950 µg/mL
IC50 (α-glucosidase; ref Jeong et al. (2012) [29]): 4.9 mM
α-glucosidase IC50 (α-glucosidase; ref Nile and Park (2014) [34]): 251.4 µg/mL
TRC [1]: 2467.90 ± 91.26 ^a mg L-AAE/g
TRC ([1]; listed as ferulic acid): 2467.90 mg L-AAE/g
Minimal Inhibitory Concentrations MICs ([7]; 24 h): >500 µg/mL
α-amilase IC50 [8]: 3.35 ± 0.85 ^b mg/mL
DPPH radical inhibition [2]: 84.3–92.3%
ABTS IC50 [9]: 0.0034 ± 0.0001 ^d mg/mL
AChE IC50 [10]: 4.10 ± 0.37 ^c mg/mL
Minimal Inhibitory Concentrations MICs ([11]; 24 h): >500 µg/mL
Minimal Inhibitory Concentrations MICs [12]: >500 µg/mL
DPPH IC50 [13]: 0.0068 ± 0.0001 ^c mg/mL
Minimal Inhibitory Concentrations MICs [14]: >500 µg/mL
Minimal Inhibitory Concentrations MICs [15]: 125 µg/mL
α-glucosidase IC50 [16]: 1.49 ± 0.18 ^a mg/mL
Minimal Inhibitory Concentrations MICs [17]: 62.5 µg/mL
MIC [18]: ≥ 1000 µg/mL
Minimal Inhibitory Concentrations MICs ([19]; 24 h): 62.5 µg/mL
α-amylase IC50 (α-amylase): 1840 µg/mL
IC50 (α-amylase): 9.5 mM
Minimal Inhibitory Concentrations MICs ([20]; 24 h): >500 µg/mL
BChE IC50 [21]: 1.97 ± 0.08 ^c mg/mL
FRAP [22]: 2.02 ± 0.04 ^a µmol Fe^2+/g
FRAP ([22]; listed as ferulic acid): 2.02 µmol Fe^2+/g
MIC [23]: 500 µg/mL (≈ 2570 µM)

O=C1O[C@H]([C@@H](O)CO)C(O)=C1O [L-AA, L-ascorbic acid]
DPPH IC50 ([2]; ref Barnawi et al. (2023) [28]): 2.51 µg/mL
DPPH IC50 ([2]; ref Dewi et al. (2021) [15]): 3.55 µg/mL
DPPH IC50 ([2]; ref Elemosho et al. (2021) [26]): 4630 µg/mL
DPPH IC50 [3]: 0.0057 ± 0.0003 ^f mg/mL
ABTS IC50 [4]: 0.0316 ± 0.0003 ^e mg/mL
FRAP [5]: 1.618 ± 0.004 ^e µmol Fe^2+/g and 1.618 ± 0.004 ^b µmol Fe^2+/g

COc1cc(-c2cc(=O)c3c(O)cc(O)cc3o2)cc(OC)c1O [TRN, 5,7,4′-trihydroxy-3′,5′-dimethoxyflavone]
TRC [1]: 312.08 ± 12.44 ^d mg L-AAE/g
MIC [7]: > 500 µg/mL
IC50 [8]: 5.84 mM
DPPH IC50 [2, 27]: 90.39 µg/mL
ABTS IC50 [9]: 0.46 ± 0.01 ^a mg/mL
IC50 [10]: 8.72 mM
MIC [11]: > 500 µg/mL
tyrosinase IC50 (tyrosinase; ref [38]): 269.46 µg/mL
MIC [12]: > 500 µg/mL
DPPH IC50 [13]: 1.71 ± 0.15 ^b mg/mL
Tyr IC50 (tyrosinase from mushroom): did not exhibit inhibitory activity within the tested concentration range
Minimal Inhibitory Concentrations MICs [14]: 250 µg/mL
MIC [14]: 250 µg/mL (≈ 757 µM)
Minimal Inhibitory Concentrations MICs [15]: 31.25 µg/mL
MIC [15]: 31.2 µg/mL (≈ 94.6 µM)
Minimal Inhibitory Concentrations MICs [17]: 31.25 µg/mL
MIC [17]: 31.2 µg/mL (≈ 94.6 µM)
MIC [19]: 62.5 µg/mL (≈ 189 µM)
MIC [20]: > 500 µg/mL
IC50 [21]: 1.67 mM
FRAP [22]: 0.34 ± 0.01 ^d µmol Fe^2+/g

COc1ccc2cc3[n+](cc2c1OC)CCc1cc2c(cc1-3)OCO2 [berberine, reference compound]
AChE IC50 ([24]; ref Sim et al. (2014) [39]): 1.5 µg/mL

O=C(O)/C=C/c1ccc(O)cc1 [p-CA, p-coumaric acid]
α-glucosidase IC50 (α-glucosidase; [26]): > 4920 µg/mL
IC50 (α-glucosidase; ref Jeong et al. (2012) [29]): > 30 mM
α-glucosidase IC50 (α-glucosidase; ref Nile and Park (2014) [34]): 90.8 µg/mL
TRC [1]: 1810.89 ± 116.14 ^b mg L-AAE/g
TRC ([1]; listed as p-Coumaric acid): 1810.89 mg L-AAE/g
MIC [7]: > 500 µg/mL
IC50 [8]: 167 mM
DPPH radical inhibition [2]: 10.3–26.9%
ABTS IC50 [9]: 0.0256 ± 0.0012 ^c mg/mL
IC50 [10]: 63.3 mM
MIC [11]: > 500 µg/mL
MIC [12]: > 500 µg/mL
DPPH IC50 [13]: 2.96 ± 0.16 ^a mg/mL
Minimal Inhibitory Concentrations MICs [14]: 250 µg/mL
MIC [14]: 250 µg/mL (≈ 1520 µM)
Minimal Inhibitory Concentrations MICs [15]: 31.25 µg/mL
MIC [15]: 31.2 µg/mL (≈ 190 µM)
Minimal Inhibitory Concentrations MICs [17]: 31.25 µg/mL
MIC [17]: 31.2 µg/mL (≈ 190 µM)
MIC [18]: ≥ 1000 µg/mL
MIC [19]: 62.5 µg/mL (≈ 381 µM)
α-amylase IC50 (α-amylase): > 4920 µg/mL
IC50 (α-amylase): > 30 mM
MIC [20]: > 500 µg/mL
MIC (Gram-negative bacteria): 10 to 80 µg/mL
MIC [25]: 20 µg/mL (≈ 122 µM)
FRAP [22]: 0.92 ± 0.02 ^c µmol Fe^2+/g

O=c1c(O)c(-c2ccc(O)c(O)c2)oc2cc(O)cc(O)c12 [quercetin]
DPPH IC50 [2, 27]: 42.98 µg/mL

COc1cc(C(O)C(CO)Oc2c(OC)cc(-c3cc(=O)c4c(O)cc(O)cc4o3)cc2OC)ccc1O (stereo not drawn) [salcolin A, tricin 4′-O-(threo-β-guaiacylglyceryl)ether]
DPPH IC50 [2, 27]: 208.1 µg/mL

COc1cc([C@H](O)[C@H](CO)Oc2c(OC)cc(-c3cc(=O)c4c(O)cc(O)cc4o3)cc2OC)ccc1O [salcolin B, tricin 4′-O-(erythro-β-guaiacylglyceryl)ether]
DPPH IC50 [2, 27]: 352.04 µg/mL

O=C(O)CC1C(=O)Nc2cccc(O)c21 (stereo not drawn) [tasselin A, 4-hydroxy-1-oxindole-3-acetic acid]
IC50 (tyrosinase; ref Wille and Berhow (2011) [37]): 0.75 mM

O=c1cc(-c2cc(O)c(O)c(O)c2)oc2cc(O)cc(O)c12 [tricetin]
AChE IC50 ([24]; ref Kuppusamy et al. (2017) [40]): 18.28 µg/mL
